Tested on: A498 complex spheroids with HUVEC/MSC, growth
Experiment: Anticancer human tumor A498 cell line growth inhibition [AhR];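 further: seven day exposure starting three days after spheroid seeding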;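 on viability, T/C: luminescence signal used as a surrogate for viable cells; luminescence viability scaled so 100% equals DMSO vehicle wells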
Settings: for IC50: curve of first compound; for viability, T/C: stronger effect = lower value
In short: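 Complex tumor spheroids co-cultured with HUVEC and human MSC stroma; AhR antagonists tested in combination with standard-of-care and investigational agents. Top concentration at or near clinical Cmax (else 10 microM), half-log dilutions; growth expressed as percent test/control.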

With `CC1(C)CCC(CN2CCN(c3ccc(C(=O)NS(=O)(=O)c4ccc(NCC5CCOCC5)c([N+](=O)[O-])c4)c(Oc4cnc5[nH]ccc5c4)c3)CC2)=C(c2ccc(Cl)cc2)C1` + Cc1ccccc1N=Nc1ccc(NC(=O)c2ccnn2C)c(C)c1 the IC50 (second compound 0.1 µM) was 8.58 µM, the IC50 (second compound 0.316 µM) was over 10 µM and the IC50 (second compound 1 µM) was 8.78 µM. It also gave an IC50 (second compound 3.16 µM) of over 10 µM, an IC50 (second compound 10 µM) of 8.77 µM and a viability, T/C (second compound 0.1 µM, first compound 0.0316 µM) of 88.7%. It also gave a viability, T/C (second compound 0.1 µM, first compound 0.1 µM) of 89.5%, a viability, T/C (second compound 0.1 µM, first compound 0.316 µM) of 87.9% and a viability, T/C (second compound 0.1 µM, first compound 1 µM) of 86.6%. It also gave a viability, T/C (second compound 0.1 µM, first compound 3.16 µM) of 76.8%, a viability, T/C (second compound 0.1 µM, first compound 10 µM) of 45.8% and a viability, T/C (second compound 0.316 µM, first compound 0.0316 µM) of 99.9%. For the same compound, the viability, T/C (second compound 0.316 µM, first compound 0.1 µM) was 98.2%, the viability, T/C (second compound 0.316 µM, first compound 0.316 µM) was 95.6% and the viability, T/C (second compound 0.316 µM, first compound 1 µM) was 87.5%. For the same compound, the viability, T/C (second compound 0.316 µM, first compound 3.16 µM) was 75.9%, the viability, T/C (second compound 0.316 µM, first compound 10 µM) was 52.3% and the viability, T/C (second compound 1 µM, first compound 0.0316 µM) was 84.7%. For the same compound, the viability, T/C (second compound 1 µM, first compound 0.1 µM) was 87.4%, the viability, T/C (second compound 1 µM, first compound 0.316 µM) was 83.6% and the viability, T/C (second compound 1 µM, first compound 1 µM) was 72%. It also gave a viability, T/C (second compound 1 µM, first compound 3.16 µM) of 66.5%, a viability, T/C (second compound 1 µM, first compound 10 µM) of 47.8% and a viability, T/C (second compound 3.16 µM, first compound 0.0316 µM) of 83%. It also gave a viability, T/C (second compound 3.16 µM, first compound 0.1 µM) of 86.7%, a viability, T/C (second compound 3.16 µM, first compound 0.316 µM) of 91.3% and a viability, T/C (second compound 3.16 µM, first compound 1 µM) of 76.9%. It also gave a viability, T/C (second compound 3.16 µM, first compound 3.16 µM) of 66.7%, a viability, T/C (second compound 3.16 µM, first compound 10 µM) of 50.5% and a viability, T/C (second compound 10 µM, first compound 0.0316 µM) of 88.3%. It also gave a viability, T/C (second compound 10 µM, first compound 0.1 µM) of 86.7%, a viability, T/C (second compound 10 µM, first compound 0.316 µM) of 84.6% and a viability, T/C (second compound 10 µM, first compound 1 µM) of 77.6%. For the same compound, the viability, T/C (second compound 10 µM, first compound 3.16 µM) was 78.5% and the viability, T/C (second compound 10 µM, first compound 10 µM) was 46%.

For `CCN(c1cc(-c2ccc(CN3CCOCC3)cc2)cc(C(=O)NCc2c(C)cc(C)[nH]c2=O)c1C)C1CCOCC1` + Cc1ccccc1N=Nc1ccc(NC(=O)c2ccnn2C)c(C)c1, the IC50 (second compound 0.1 µM) was over 3 µM, the IC50 (second compound 0.316 µM) was over 3 µM and the IC50 (second compound 1 µM) was over 3 µM. The IC50 (second compound 3.16 µM) was over 3 µM, the IC50 (second compound 10 µM) was over 3 µM and the viability, T/C (second compound 0.1 µM, first compound 0.00949 µM) was 92.6%. The viability, T/C (second compound 0.1 µM, first compound 0.03 µM) was 96.8%, the viability, T/C (second compound 0.1 µM, first compound 0.0949 µM) was 94.3% and the viability, T/C (second compound 0.1 µM, first compound 0.3 µM) was 89.7%. It also gave a viability, T/C (second compound 0.1 µM, first compound 0.949 µM) of 93.1%, a viability, T/C (second compound 0.1 µM, first compound 3 µM) of 98.4% and a viability, T/C (second compound 0.316 µM, first compound 0.00949 µM) of 95.4%. The viability, T/C (second compound 0.316 µM, first compound 0.03 µM) was 98.9%, the viability, T/C (second compound 0.316 µM, first compound 0.0949 µM) was 98.2% and the viability, T/C (second compound 0.316 µM, first compound 0.3 µM) was 96.8%. For the same compound, the viability, T/C (second compound 0.316 µM, first compound 0.949 µM) was 96.4%, the viability, T/C (second compound 0.316 µM, first compound 3 µM) was 104% and the viability, T/C (second compound 1 µM, first compound 0.00949 µM) was 91.3%. It also gave a viability, T/C (second compound 1 µM, first compound 0.03 µM) of 92.9%, a viability, T/C (second compound 1 µM, first compound 0.0949 µM) of 90.8% and a viability, T/C (second compound 1 µM, first compound 0.3 µM) of 91.2%. For the same compound, the viability, T/C (second compound 1 µM, first compound 0.949 µM) was 85.2%, the viability, T/C (second compound 1 µM, first compound 3 µM) was 91.6% and the viability, T/C (second compound 3.16 µM, first compound 0.00949 µM) was 86.7%. For the same compound, the viability, T/C (second compound 3.16 µM, first compound 0.03 µM) was 92.6%, the viability, T/C (second compound 3.16 µM, first compound 0.0949 µM) was 91% and the viability, T/C (second compound 3.16 µM, first compound 0.3 µM) was 89.2%. The viability, T/C (second compound 3.16 µM, first compound 0.949 µM) was 87.7%, the viability, T/C (second compound 3.16 µM, first compound 3 µM) was 86.3% and the viability, T/C (second compound 10 µM, first compound 0.00949 µM) was 95.6%. It also gave a viability, T/C (second compound 10 µM, first compound 0.03 µM) of 91%, a viability, T/C (second compound 10 µM, first compound 0.0949 µM) of 95% and a viability, T/C (second compound 10 µM, first compound 0.3 µM) of 89.5%. The viability, T/C (second compound 10 µM, first compound 0.949 µM) was 92.5% and the viability, T/C (second compound 10 µM, first compound 3 µM) was 96.3%.

Source: PubChem BioAssay AID1919007 (Molecular Pharmacology Branch, DTP, NCI, 2023)
